The text below walks through data of patent publication US20240041050A1, “CELL PENETRATING PEPTIDE MEDIATED RNA TRANSDUCTION WITHIN INSECT CELLS” (PIONEER HI-BRED INTERNATIONAL, INC., priority 2020, published 2024).

Assay [1] has as its system DvWL2 cells. The assay can be described thus: CPP-mediated delivery of mCherry mRNA cargo into insect cells. The assay is classed as cell-based, Diabrotica virgifera virgifera. The following applies: complex of 75 μM unlabeled CPP and 10 μg mCherry mRNA, overnight. An excerpt: Sample preparation and analysis methods were based on those previously reported (Jafari et al. (201 4) “Serum stability and physicochemical characterization of a novel amphipathic peptide C6M 1 for siRNA delivery”, PLoS One, 9(5), e97797; and Gillet et al. (2017) “Investigating Engineered Ribonucleoprotein Particles to Improve Oral RNAi Delivery in Crop Insect Pests”, Frontiers in Physiology, 8(256), doi: 10.3389/fphys.2017.00256). Reagents are described in Examples 1 and 2. Nanocomplex samples were prepared in one of several ways, depending on type of CPP, RNA, or assay. […] Reaction volumes added to cells were 6.38 μL CPP and 6.38 μL mRNA. Final optimal CPP concentration was assessed by amount of fluorescent signal apparent within cells. For insect cell-based assays with CPP-YFP·Cy3-dsRNA or CPP·dsRNA, first a complex formation solution was prepared in molecular biology-grade water containing 90 mg·mL^−1 maltose, 9 mg·mL^−1 mannitol, 392. 16 mM CaCI2, pH 7.0, and vacuum-filtered using Corning™ Disposable Vacuum Filter and Storage System containing a cellulose nitrate filter. Then, increasing amounts of CPP-YFP were added to Cy3-dsRNA, from a molar ratio (CPP-YFP:Cy3-dsRNA) of 1:4 through 8:1 and incubated protected from light at 25° C. for 90 minutes prior to assessment via gel shift and DLS. Reaction volumes added per cell well were comprised of 17 μL reaction solution, 1 μL CPP, 1 μL dsRNA, and 1 μL molecular biology grade water; reaction sizes for larger total volumes were increased in increments of 20 μL and component ratio was held constant to maintain an ionic strength of […]. Final optimal molar ratio selected for cell experiments were determined by increase of the apparent size of the Cy3-dsRNA band on a native agarose gel (FIG. 2A and FIG. 2B), and/or appearance and increase in size of the complex peak detected by a Zetasizer Ultra (Malvern Panalytical, Malvern, United Kingdom) DLS instrument (FIG. 2C). […] Final optimal BAPC1 concentration was assessed by amount of fluorescent signal apparent within cells. […]

Assay [2] has as its system western corn rootworm (WCR) larvae. In words: Oral toxicity screening of CPPs in artificial diet. The assay is classed as in vivo. The following applies: first instar WCR larvae, mortality and stunting. As for the experimental part: Briefly, CPPs were incorporated into standard WCR artificial diet in 96-well microtiter plate format. A 25 μL aliquot of dosing solution was combined with 75 μL molten low-melt WCR diet and shaken on an orbital shaker to mix. Once diet solidified, preconditioned first instar WCR (freshly-hatched insects placed on neutral diet for 24 hours prior to transfer to test diet) were added to the diet plates at a rate of 1 insect·well^−1. Plates were placed inside an incubator (Percival Scientific, Inc., Perry, IA) set to 27° C., 65% RH, and a 24-hour dark cycle. The assay was scored for mortality and stunting affects after 7 and 12 days, without diet refresh, on a 0-3 scale, where 3=mortality, 2=severe stunting, 1=stunting, 0=no affect when compared with untreated larvae. The assay was repeated three times and end-results were tabulated using all three replicates and converted to percentages (Table 5).

Molecules are shown by their SMILES. Peptide text beside a SMILES is read from it.

Turning to `N=C(N)NCCC[C@H](NC(=O)[C@H](Cc1c[nH]c2ccccc12)NC(=O)[C@H](CCCNC(=N)N)NC(=O)[C@@H](N)CS)C(=O)N[C@@H](Cc1c[nH]c2ccccc12)C(=O)N[C@@H](CCCCN)C(=O)N[C@@H](CS)C(=O)N[C@@H](CS)C(=O)N[C@@H](CCCCN)C(=O)N[C@@H](CCCCN)C(=O)O` [CyLoP-1, CRWRWKCCKK] (H-CRWRWKCCKK-OH; N-terminus and C-terminus assumed), the “fluorescent protein translated from delivered mCherry mRNA (fluorescent signal inside cells)” value in assay [1] is on record as “Translation of mRNA into a functional fluorescent protein occurred”. In addition, the “Affected (%)” value in assay [2] (0.195 ppm in artificial diet), in assay [2] (0.391 ppm in artificial diet), in assay [2] (0.781 ppm in artificial diet), in assay [2] (1.56 ppm in artificial diet), in assay [2] (3.13 ppm in artificial diet) and in assay [2] (6.25 ppm in artificial diet) was 0% in each case. Further, the “Affected (%)” value in assay [2] (12.5 ppm in artificial diet), in assay [2] (25.0 ppm in artificial diet), in assay [2] (50.0 ppm in artificial diet), in assay [2] (100 ppm in artificial diet) and in assay [2] (200 ppm in artificial diet) was 0% in each case.
